US20070122360A1, “Nonaqueous gel composition for tooth whitening and tooth whitening set” (LION CORPORATION, priority 2003, published 2007)

Key:
[1] = Measurement of relative permittivity (LCR meter, 100 kHz, 1 V); type: physicochemical
Protocol: The sample (100 mL) was tested for relative permittivity at 25° C. at a frequency of 100 kHz and a voltage of 1 V by using an LCR meter (HP4284A, with HP16452A electrode for liquid, from Hewlett Packard).

[2] = Measurement of vapor pressure (vapor-liquid equilibrium apparatus)
[3] = Solubility of ingredient (B) in aqueous solution of 1 mmol/L calcium chloride; conditions: 0.1 g in 100 g aqueous 1 mmol/L calcium chloride, 37° C.
Protocol: (§1) If the ingredient (B) is liquid, the term “is precipitated by an aqueous solution of calcium chloride” means that the ingredient (B) forms precipitates or becomes turbid.
Solubility of the ingredient (B) in an aqueous solution of 1 mmol/L calcium chloride was determined in the same way as above.

[4] = Solubility of ingredient (B) in tooth whitening ingredient (A), visual check for undissolved residues; conditions: for Solubility in PEG#300 (Av. MW 280-320): 0.1 g in 100 g PEG#300, 37° C.; for Solubility in 1,3-butylene glycol: 0.1 g in 100 g 1,3-butylene glycol
Protocol: as §1
A sample (0.1 g) of the ingredient (B) is added to 100 g of the tooth whitening ingredient (A), and the resulting mixture is stirred at 37° C. for 16 hours and allowed to stand at 37° C. for 24 hours. The mixture is visually examined for undissolved residues of the ingredient (B).
Criterion for Overall Rating: • ◯: More than 0.1 g is soluble in 100 g of ingredient (A) and less than 0.1 g is soluble in 100 g of aqueous solution of 1 mmol/L calcium chloride.
X: Other than specified above.

SMILES	Relative Permittivity (at 25° C.) [1]	Vapor pressure kPa (at 25° C.) [2]	Solubility in Aqueous solution of 1 mmol/L calcium chloride [3]	further results
CC(O)CCO (stereo not shown) [1,3-dibutylene glycol]	33.5	108 kPa	–	–
OCCOCCO [Diethylene glycol]	33.0	11 kPa	–	–
CC(O)COC(C)CO (stereo not shown) [Dipropylene glycol]	26.2	0 kPa	–	–
CCCCCCCC/C=C\CCCCCCCCCCCC(=O)O [Erucic acid]	–	–	X (solubility less than 0.1 g (with undissolved residues))	Solubility in PEG#300 (Av. MW 280-320) [4]: ◯ (solubility more than 0.1 g (no undissolved residues))
CCO [Ethanol]	24.6	7948 kPa	–	–
OCCO [Ethylene glycol]	37.7	59 kPa	–	–
OCC(O)CO [Glycerin]	42.5	3 kPa	–	–
CC(C)O [Isopropanol]	19.9	5819 kPa	–	–
CCCCCCCCCCCC(=O)O [Lauric acid, reference compound]	–	–	◯ (solubility more than 0.1 g (no undissolved residues))	Solubility in 1,3-butylene glycol ([4]; 37° C.): ◯ (solubility more than 0.1 g (no undissolved residues))
CCCCCCCCCCCCCC(=O)O [Myristic acid]	–	–	X (solubility less than 0.1 g (with undissolved residues))	Solubility in PEG#300 (Av. MW 280-320) [4]: ◯ (solubility more than 0.1 g (no undissolved residues))
CCCCCCCC/C=C\CCCCCCCC(=O)O [Oleic acid]	–	–	X (solubility less than 0.1 g (with undissolved residues))	Solubility in PEG#300 (Av. MW 280-320) [4]: ◯ (solubility more than 0.1 g (no undissolved residues))
CCCCCC/C=C\CCCCCCCC(=O)O [Palmitoleic acid]	–	–	X (solubility less than 0.1 g (with undissolved residues))	Solubility in 1,3-butylene glycol ([4]; 37° C.): ◯ (solubility more than 0.1 g (no undissolved residues)); Solubility in PEG#300 (Av. MW 280-320) [4]: ◯ (solubility more than 0.1 g (no undissolved residues)); Solubility in Propylene glycol ([4]; 0.1 g in 100 g Propylene glycol, 37° C.): ◯ (solubility more than 0.1 g (no undissolved residues))
CC(O)CO (stereo not shown) [Propylene glycol]	32.0	1 kPa	–	–
O [Water]	78.3	–	–	–
[Cl-].[Cl-].[Zn+2] [Zinc chloride, reference compound]	–	–	◯ (solubility more than 0.1 g (no undissolved residues))	Solubility in 1,3-butylene glycol ([4]; 37° C.): ◯ (solubility more than 0.1 g (no undissolved residues))
